# Results as given in patent US20130202659A1, “POLYMER-AGENT CONJUGATES, PARTICLES, COMPOSITIONS, AND RELATED METHODS OF USE” (CERULEAN PHARMA INC., priority 2012, published 2013).
# Assays:
# [1] = Tolerability in ADR-RES tumor-bearing mice (Example 59); format: in vivo, mouse
# Experimental: The treatments were administered IV into the tail vein at a dose volume of 10 and 20 mL/kg for 30 and 60 mg/kg respectively, beginning on post-implantation day 47, when the mean tumor volume was ca. 150 mm^3. Body weight and tumor volume were measured for three times a week during the dosing period and twice a week thereafter. In addition, animals were also monitored for any morbidity and adverse effects for three times a week during the dosing period and twice a week thereafter.
# Tumor volume was calculated with (width×width×length)/2 mm^3 formula. […] Tumor growth inhibition (TGI) is represented as % and calculated as (1−(treated tumor volume/control tumor volume))×100 when the control group mean tumor volume reached ≧1000 mm^3. Tumor growth delay (TGD) is calculated by subtracting the day when the vehicle treated group reached the maximum tumor size 1000 mm^3 from the day when the treatment group tumor size reached 1000 mm^3.
# MDA-MB-435 tumor = assay: MDA-MB-435 breast xenograft model, delayed treatment (Example 93); conditions: mouse, in vivo
# Source text: See, for example, FIG. 7.
# HCT-116 tumor = assay: In vivo efficacy, HCT-116 colon xenograft model (Example 44); parameters: species or system human (in CD-1 nude mice); conditions: 30 mg/kg IV weekly×2
# Experimental: HCT-116 cells were grown in culture to confluency in McCoy's 5a medium containing 10% FBS and 1% penicillin/streptomycin and then resuspended in McCoy's 5a (passage 4). This suspension of HCT-116 cells (density=3.7×10^6 cells/mL) was implanted subcutaneously above the right hind leg of male CD-1 nude mice on day 1.
# [2] = weekly schedule, 3 injections; cited from earlier work
# [3] = Tolerability in normal male C57BL/6 non-tumor-bearing mice (Example 47); format: in vivo, mouse
# Experimental: Treatments were administered intravenously on a q7d×2 schedule, i.e., two treatments seven days apart (the first treatment was on Day one). The study ended on Day 14, six days after the 2nd treatment. Blood was collected for complete blood count (CBC) and serum chemistry. Leg muscles were collected so that nerve degeneration could be assessed from the sciatic nerve.
# H1299 tumor = assay: Efficacy in non-small cell lung carcinoma model H1299 (Example 60); format: in vivo, nu/nu mice; conditions: large tumor group, 30 mg/kg
# Experimental: H1299 cells were grown in culture to 85-90% confluency in RPMI medium supplemented with 10% fetal bovine serum (FBS), 1% glutamine and 1% penicillin/streptomycin. Cells were removed from the culture flask using 0.05% trypsin (passage=4), re-suspended in RPMI medium (density=50×10^6 cells/mL) and were implanted subcutaneously (5×10^6 cells in 100 μL RPMI medium/mouse) into the mammary fat pad area of male nu/nu mice on day 1.
# (§1) The treatments were administered IV into the tail vein at a dose volume of 10 and 20 mL/kg for 30 and 60 mg/kg respectively, beginning on post-implantation day 30 when the mean tumor volume was ca. 170 mm^3 (small tumor group), and on day 37 when the mean tumor volume was ca. 440 mm^3 (large tumor group). Body weight and tumor volume were measured for three times a week during the dosing period and twice a week thereafter. In addition, animals were also monitored for any morbidity and adverse effects for three times a week during the dosing period and twice a week thereafter.
# Tumor volume was calculated with (width×width×length)/2 mm^3 formula. Efficacy was determined by tumor growth inhibition (TGI), tumor growth delay (TGD) and survival. Tumor growth inhibition (TGI) is represented as % and calculated as (1−(treated tumor volume/control tumor volume))×100 when the control group mean tumor volume reached ≧1000 mm^3. […]
# SK-OV-3 tumor = assay: In vivo efficacy, SK-OV-3 ovarian human xenograft model (Example 45); parameters: species or system human (in CD-1 nude mice)
# Experimental: SK-OV-3 cells were grown in culture to confluency in RPMI medium containing 10% FBS and 1% penicillin/streptomycin and then resuspended in RPMI (passage 4) for implantation into mice. This suspension of SK-OV-3 cells (density=30×10^6 cells/mL) was implanted into the mammary gland of female CD-1 nude mice on Day 1. […]
# B16.F10 tumor [4] = assay: Efficacy in B16.F10 murine melanoma model (Example 43); format: in vivo, mouse
# Experimental: 7) PEGylated docetaxel-5050 PLGA-β-acetyl nanoparticles (mPEG(5k)-PLGA at 40 wt %) administered at a dose of 15 mg/kg. Refer to table for detailed description of formulations.
# Tumor volume was calculated with the following equation: (width×width×length)/2 mm^3.
# murine melanoma tumor = assay: Efficacy and survival in aggressive murine melanoma model at MTD (Example 92); format: in vivo, mouse; conditions: dosed at respective MTD
# Experimental: Thus, the sustained release properties of a particle according to exemplary particle 1 supports less frequent dosing of patients. Methods: Tumor-bearing mice were injected with a particle according to exemplary particle 1 or docetaxel at their respective MTD. See, for example, FIGS. 6a and 6b.
# [5] = Tolerability in mouse melanoma model B16.F10 (Example 61); format: in vivo; conditions: 15 mg/kg 1/wk×3
# Experimental: The treatments were administered IV into the tail vein at a dose volume of 10 ml/kg, beginning on post-implantation day 5, when the mean tumor volume was ca. 60 mm^3. Animals were monitored for any morbidity and adverse effects three times a week. In addition, body weight and tumor volume were also measured three times a week.
# [6] = mouse, in vivo, 17 day post-implantation
# Experimental: The stock solution was diluted further with PBS to 0.6, 1.5, 3, 4.5 and 6 mg/mL (for a corresponding dose of 6, 15, 30, 45 and 60 mg/kg) so that all the groups received the same amount of ethanol, polysorbate 80, water and PBS. […] 5) PEGylated O-acetyl-5050-PLGA nanoparticle vehicle at the highest concentration of 6 mg/mL.
# The treatments were administered IV into the tail vein at a dose volume of 10 mL/kg, beginning on post-implantation Day 5, when the mean tumor volume was 55 mm^3. The treatments were administered 4 times, on Days 5, 8, 12 and 15 (biweekly×4 injections). On Day 17 post-tumor implantation, mice were euthanized by CO2 inhalation according to the procedure guideline. Blood was collected by cardiac puncture and put into ethylenediaminetetraacetic acid (EDTA) or serum separation blood collection tubes. Whole blood was analyzed on the day of collection for CBC analyses. After the blood clotted and was centrifuged, serum was frozen immediately on dry ice for serum chemistry analyses.
# Tolerability was determined by changes in body weight, expressed as a percent of the initial body weight on post-implantation Day 5. […] Other indices of toxicity, complete blood count (CBC) and serum chemistry were determined from blood collected from animals that were euthanized on Day 17 by CO2 inhalation, according to the procedure guideline.
# [7] = Tolerability in H1299 tumor-bearing mice (Example 60); format: in vivo, mouse
# Experimental: as §1
# Tumor volume was calculated with (width×width×length)/2 mm^3 formula. Efficacy was determined by tumor growth inhibition (TGI), tumor growth delay (TGD) and survival. Tumor growth inhibition (TGI) is represented as % and calculated as (1−(treated tumor volume/control tumor volume))×100 when the control group mean tumor volume reached ≧1000 mm^3. Tumor growth delay (TGD) is calculated by subtracting the day when the vehicle treated group reached the maximum tumor size 1000 mm^3 from the day when the treatment group tumor size reached 1000 mm^3.
# [8] = Body weight changes in A2780 tumor-bearing mice (Example 42); format: in vivo, mouse; conditions: Day 36
# Experimental: The stock solution was diluted further with PBS to 1.5 mg/mL (for a dose of 15 mg/kg at 10 mL/kg and 30 mg/kg at 20 mL/kg). This formulation was made within 30 minutes of administration to mice.
# The treatments were administered 2 times, on Day 8 and Day 15 (weekly×2 injections) for n=8 mice per group. […] On Day 50, the study was ended for all remaining mice. When removed from the study, mice were euthanized by CO2 inhalation.
# B16.F10 tumor [9] = assay: In vivo efficacy, B16.F10 mouse model of melanoma (Example 39)
# Experimental: The treatments were administered on days 5, 8, and 12 (biweekly×3 injections) post tumor implantation. Health status of the animals was monitored and tumor size was measured three times a week. […] Tumors from each animal were dissected and tumor size was measured. Tumor volume was calculated using the formula: (width×width×length)/2 mm^3.
# B 16.F10 cells = assay: CellTiter-Glo Luminescent Cell Viability Assay, cytotoxic effect of nanoparticles; format: cell-based, mouse; conditions: 24, 48 and 72 hours
# Experimental: B 16.F10 cells, grown to 85-90% confluency in 150 cm^2 flasks (passage<30), were resuspended in media (MEM-alpha, 10% HI-FBS, lx antibiotic-antimycotic) and added to 96-well opaque-clear bottom plates at a concentration of 1500 cells/well in 200 μL/well. The cells were incubated at 37° C. with 5% CO2 for 24 hours. The following day, serial dilutions of 2× concentrated particles and 2× concentrated free drug were made in 12-well reservoirs with media to specified concentrations. The media in the plates was replaced with 100 μL of fresh media and 100 μL of the corresponding serially diluted drug. Three sets of plates were prepared with duplicate treatments. Following 24, 48 and 72 hours of incubation at 37° C. with 5% CO2, the media in the plates was replaced with 100 μL of fresh media and 100 μL of CTG solution, and then incubated for 5 minutes on a plate shaker at room temperature set to 450 rpm and allowed to rest for 15 minutes. Viable cells were measured by luminescence using a microtiter plate reader. The data was plotted as % viability vs. concentration and standardized to untreated cells.
# [10] = large tumor group, 30 mg/kg 1/wk×2
# [11] = large tumor group, 60 mg/kg 1/wk×2
# [12] = small tumor group, 30 mg/kg 1/wk×2
# [13] = small tumor group, 60 mg/kg 1/wk×2
compound,measurement,setting,value
"CC(=O)O[C@@]12CO[C@@H]1C[C@H](O)[C@@]1(C)C(=O)[C@H](O)C3=C(C)[C@@H](OC(=O)[C@H](O)[C@@H](NC(=O)OC(C)(C)C)c4ccccc4)C[C@@](O)([C@@H](OC(=O)c4ccccc4)[C@H]21)C3(C)C [Free docetaxel, docetaxel]",Maximum body weight loss,[1]; 30 mg/kg 1/biwk×3,9%
same,hind limb paralysis,[1]; 30 mg/kg 1/biwk×3,did not cause any significant body weight loss (<10%) or hind limb paralysis
same,Maximum body weight loss,[1]; 30 mg/kg 1/wk×2,6%
same,hind limb paralysis,[1]; 30 mg/kg 1/wk×2,did not cause any significant body weight loss (<10%) or hind limb paralysis
same,Maximum body weight loss,[1]; 60 mg/kg 1/biwk×3,21%
same,hind limb paralysis,[1]; 60 mg/kg 1/biwk×3,severe hind limb paralysis
same,Maximum body weight loss,[1]; 60 mg/kg 1/wk×2,23%
same,hind limb paralysis,[1]; 60 mg/kg 1/wk×2,hind limb paralysis after the 2nd injection followed by recovery
same,effect on tumors allowed to grow to 500 mm^3 (delayed treatment),MDA-MB-435 tumor,unable to suppress tumor growth
same,tumor growth inhibition (TGI),HCT-116 tumor,88%
same,TGD,HCT-116 tumor; end point 1000 mm^3,22 days
same,known maximum tolerated dose (MTD),[2],30 mg/kg
same,Ataxia,[3]; 30 mg/kg q7d×2,0%
same,Lymphocyte mean,"[3]; 30 mg/kg q7d×2, Day 14",4350 cells/A
same,Neutrophil mean,"[3]; 30 mg/kg q7d×2, Day 14",556 cells/A
same,Ataxia,[3]; 45 mg/kg q7d×2,20%
same,Lymphocyte mean,"[3]; 45 mg/kg q7d×2, Day 14",6780 cells/A
same,Neutrophil mean,"[3]; 45 mg/kg q7d×2, Day 14",752 cells/A
same,Ataxia,[3]; 60 mg/kg q7d×2,100%
same,"weight lost after the second treatment, by the end of the study",[3]; 60 mg/kg q7d×2,19%
same,Lymphocyte mean,"[3]; 60 mg/kg q7d×2, Day 14",5590 cells/A
same,Neutrophil mean,"[3]; 60 mg/kg q7d×2, Day 14",470 cells/A
same,effect on serum chemistry,[3]; doses up to 60 mg/kg,did not affect any serum chemistry parameter
same,tumor shrinkage,H1299 tumor,no tumor shrinkage
same,tumor growth delay (TGD),SK-OV-3 tumor; 15 mg/kg weekly×2,18 days
same,tumor growth delay (TGD),SK-OV-3 tumor; 30 mg/kg weekly×2,42 days
same,tumor growth delay (TGD),"B16.F10 tumor [4]; q3dq4dx3, 15 mg/kg",12 days
same,tumor growth delay (TGD),"B16.F10 tumor [4]; q7dx3, 30 mg/kg",17 days
same,day tumor volume end point reached,"B16.F10 tumor [4]; q14dx2, 60 mg/kg",29 days
same,tumor growth inhibition (TGI),"B16.F10 tumor [4]; q14dx2, 60 mg/kg",71%
same,tumor growth with every other week dosing,murine melanoma tumor,not sufficient to suppress tumor growth
same,Maximum body weight loss,[5],2%
same,dose up to which no serum chemistry parameter was affected,[6],30 mg/kg
same,Maximum body weight loss,[7]; [10],19%
same,hind limb paralysis,[7]; [10],did not cause any significant body weight loss or hind limb paralysis
same,Maximum body weight loss,[7]; [11],significant body weight loss
same,hind limb paralysis,[7]; [11],severe hind limb paralysis
same,Maximum body weight loss,[7]; [12],18%
same,hind limb paralysis,[7]; [12],did not cause any significant body weight loss or hind limb paralysis
same,Maximum body weight loss,[7]; [13],significant body weight loss
same,hind limb paralysis,[7]; [13],severe hind limb paralysis
same,"body weight, % of initial",[8]; 15 mg/kg,113±11%
same,"body weight, % of initial",[8]; 30 mg/kg,105±9%
"CC(=O)O[C@H]1C(=O)[C@@]2(C)[C@H]([C@H](OC(=O)c3ccccc3)[C@]3(O)C[C@H](OC(=O)[C@H](O)[C@@H](NC(=O)c4ccccc4)c4ccccc4)C(C)=C1C3(C)C)[C@]1(OC(C)=O)CO[C@@H]1C[C@@H]2O [Free paclitaxel, paclitaxel]",Day-17 TGI,"B16.F10 tumor [9]; 6 mg/kg IV days 5, 8, 12",57%
same,Day-17 TGI,"B16.F10 tumor [9]; 15 mg/kg IV days 5, 8, 12",83%
"OC[C@H]1O[C@@](CO)(O[C@H]2O[C@H](CO)[C@@H](O)[C@H](O)[C@H]2O)[C@@H](O)[C@@H]1O [Sucrose, sucrose]",Recon. Solution Appearance,"nanoparticles A, sucrose cycle, lyoprotectant 100 mg/mL, polymer 31.25 mg/mL, 3.2:1",cloudy
"OC[C@H]1O[C@@H]2O[C@H]3[C@H](O)[C@@H](O)[C@@H](O[C@H]4[C@H](O)[C@@H](O)[C@@H](O[C@H]5[C@H](O)[C@@H](O)[C@@H](O[C@H]6[C@H](O)[C@@H](O)[C@@H](O[C@H]7[C@H](O)[C@@H](O)[C@@H](O[C@H]8[C@H](O)[C@@H](O)[C@@H](O[C@H]1[C@H](O)[C@H]2O)O[C@@H]8CO)O[C@@H]7CO)O[C@@H]6CO)O[C@@H]5CO)O[C@@H]4CO)O[C@@H]3CO [β-CD, β-cyclodextrin]",solubility of the cyclodextrin in the formulation,40 mg/mL,Beta-CD is not soluble at this
bis(docetaxel) glutamate-5050 PLGA-O-acetyl,growth inhibition of B 16.F10 cells,B 16.F10 cells,inhibited the growth of B 16.F10 cells in a dose and time dependent manner
docetaxel-5050 PLGA-O-acetyl,growth inhibition of B 16.F10 cells,B 16.F10 cells,inhibited the growth of B 16.F10 cells in a dose and time dependent manner
doxorubicin 5050 PLGA amide,growth inhibition of B 16.F10 cells,B 16.F10 cells,inhibited the growth of B 16.F10 cells in a dose and time dependent manner
paclitaxel-5050 PLGA-O-acetyl,growth inhibition of B 16.F10 cells,B 16.F10 cells,inhibited the growth of B 16.F10 cells in a dose and time dependent manner
